Measured values taken from patent US9676771B2, “Compounds for inhibiting drug-resistant strains of HIV-1 integrase” (priority 2013, dated 2017).
Like-named read-outs stand apart in the source and are kept apart here.

Tests used:
[1] = tested on: HIV-1 constructs containing wild-type IN; experiment: microbe, parasite or virus in culture; type: cell-based; details: for EC50: Human immunodeficiency virus 1, WT IN, read-out: EC50 (nM, WT); for Si (selectivity index): ratio of CC50 to EC50
[2] = tested on: HIV-1 constructs containing mutant IN Y143R; experiment: microbe, parasite or virus in culture; type: cell-based; details: Human immunodeficiency virus 1
Source text: (§1) Single-Round HIV-1 Infectivity Assay.
(§2) Human embryonyl kidney cell culture cell line 293 was acquired from the American type Culture Collection (ATCC).
(§3) The virus-containing supernatants were then harvested, clarified by low-speed centrifugation, filtrated, and diluted for preparation in infection assays. […] Activity was normalized to infectivity in the absence of target compounds. KaleidaGraph (Synergy Software, Reading, Pa.) was used to perform regression analysis on the data. EC50 values were determined from the fit model.
(§4) pNLNgoMIVR^−ΔEnv.LUC has been described previously (Zhao et al. 2008). The integrase codon reading frame was removed from pNLNgoMIVR^−ΔEnv LUC (between KpnI and SalI sites) and placed between the KpnI and SalI sites of pBluescript II KS+. Using that construct as the wild-type template, we prepared the following HIV-1 Integrase-resistant mutants via the QuikChange II XL (Stratagene, La Jolla, Calif.) site-directed mutagenesis protocol: H51Y, T66I, E92Q, G118R, Y143R, Q148H, Q148K, N155H, R263K, G140S+Q148H, G140A+Q148K, E138K+Q148K, and H51Y+R263K. The following sense with cognate antisense (not shown) oligonucleotides (Integrated DNA Technologies, Coralville, Iowa) were used in the mutagenesis: H51Y, 5′-[…]-3; T66I, 5′-[…]-3′; E92Q, 5′-[…]-3′; G118R, 5′-[…]-3′; E138K, 5′-[…]-3; G140A, 5′-[…]-3; G140S, 5′-[…]-3′; Y143R, 5′-[…]-3′; Q148H, 5′-[…]-3′; Q148K, 5′-[…]-3; N155H, 5′-[…]-3′; R263K 5′-[…]-3′. The double mutation G140S+Q148H was constructed by using the previously generated Q148H mutant and the appropriate oligonucleotide for the 2nd mutation, G140S. The double mutation G140A+Q148K was made by using the Q148K mutant and the appropriate oligonucleotide for the 2nd mutation, G140A. The double mutation E138K+Q148K was made by using the Q148K mutant and the appropriate oligonucleotide for the 2nd mutation, E138K. The double mutation H51Y+R263K was constructed by using the previously generated H51Y mutant and the appropriate oligonucleotides for the 2nd mutation, R263K. The DNA sequence of each construct was verified independently by DNA sequence determination. […] These DNA sequences were additionally checked independently by DNA sequence determination.

[3] = tested on: HIV-1 constructs containing mutant IN N155H; experiment: microbe, parasite or virus in culture; type: cell-based; details: Human immunodeficiency virus 1
Source text: as §1, §2, §3, §4

[4] = tested on: HIV-1 constructs containing mutant IN G140S-Q148H; experiment: microbe, parasite or virus in culture; type: cell-based; details: Human immunodeficiency virus 1
Source text: as §1, §2, §3, §4

[5] = biological target: HIV-1 integrase (Human immunodeficiency virus type 1 group M subtype B, UniProt P12497); experiment: biochemical; type: biochemical
How it was run: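 Compounds or DMSO added to 20 nM DNA and 400 nM integrase in 50 mM MOPS pH 7.2, 7.5 mM MgCl2, 14 mM 2-mercaptoethanol; 2 h at 37° C, quenched with formamide/SDS loading buffer. Products resolved on gels, imaged and quantified by densitometry.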

[6] = tested on: HIV-1 constructs containing mutant IN G118R; experiment: microbe, parasite or virus in culture; type: cell-based; details: Human immunodeficiency virus 1
Description: as §1, §2
as §3, with “[…]. […] The” for “The”, “assays. […] After compound incorporation and activation in the cell, 100 μL of virus-stock diluted to achieve a maximum luciferase signal between 0.2 and 1.5 RLUs was added to each well and further incubated at 37° C. for 48 hrs.” for “assays.”
(§5) pNLNgoMIVR^−ΔEnv.LUC has been described previously (Zhao et al. 2008). The integrase codon reading frame was removed from pNLNgoMIVR^−ΔEnv LUC (between KpnI and SalI sites) and placed between the KpnI and SalI sites of pBluescript II KS+. Using that construct as the wild-type template, we prepared the following HIV-1 Integrase-resistant mutants via the QuikChange II XL (Stratagene, La Jolla, Calif.) site-directed mutagenesis protocol: H51Y, T66I, E92Q, G118R, Y143R, Q148H, Q148K, N155H, R263K, G140S+Q148H, G140A+Q148K, E138K+Q148K, and H51Y+R263K. The following sense with cognate antisense (not shown) oligonucleotides (Integrated DNA Technologies, Coralville, Iowa) were used in the mutagenesis: H51Y, 5′-[…]-3; T66I, 5′-[…]-3′; E92Q, 5′-[…]-3′; G118R, 5′-[…]-3′; E138K, 5′-[…]-3; G140A, 5′-[…]-3; G140S, 5′-[…]-3′; Y143R, 5′-[…]-3′; Q148H, 5′-[…]-3′; Q148K, 5′-[…]-3; N155H, 5′-[…]-3′; R263K 5′-[…]-3′. The double mutation G140S+Q148H was constructed by using the previously generated Q148H mutant and the appropriate oligonucleotide for the 2nd mutation, G140S. The double mutation G140A+Q148K was made by using the Q148K mutant and the appropriate oligonucleotide for the 2nd mutation, G140A. The double mutation E138K+Q148K was made by using the Q148K mutant and the appropriate oligonucleotide for the 2nd mutation, E138K. The double mutation H51Y+R263K was constructed by using the previously generated H51Y mutant and the appropriate oligonucleotides for the 2nd mutation, R263K. The DNA sequence of each construct was verified independently by DNA sequence determination. The mutant integrase coding sequences from pBluescript II KS+ were then subcloned into pNLNgoMIVR^−ΔEnv LUC (between the KpnI and SalI sites) to produce the full-length mutant HIV-1 Integrase constructs. These DNA sequences were additionally checked independently by DNA sequence determination.

[7] = in vitro; type: cell-based, human; details: human, 50% reduction in the level of ATP in HOS cells
How it was run: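 Cells exposed to compounds over a concentration range for 48 hrs at 37° C. Viability read as cellular ATP by luciferase (ATPlite) luminescence after lysis, normalised to untreated cells; CC50 derived by regression fit.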

[8] = tested on: HIV-1 constructs containing mutant IN R263K; experiment: Single-round HIV-1 infectivity assay, IN mutant R263K; type: cell-based; details: Human immunodeficiency virus 1
Description: as §1, §2
as §3, with “[…]. […] The” for “The”, “assays. […] After compound incorporation and activation in the cell, 100 μL of virus-stock diluted to achieve a maximum luciferase signal between 0.2 and 1.5 RLUs was added to each well and further incubated at 37° C. for 48 hrs.” for “assays.”
as §5

[9] = tested on: HIV-1 constructs containing mutant IN E92Q; experiment: Single-round HIV-1 infectivity assay, IN mutant E92Q; type: cell-based; details: Human immunodeficiency virus 1; Table 8; read-out: EC50 (nM, IN mutants) E92Q
Description: as §1, §2
as §3, with “[…]. […] The” for “The”, “assays. […] After compound incorporation and activation in the cell, 100 μL of virus-stock diluted to achieve a maximum luciferase signal between 0.2 and 1.5 RLUs was added to each well and further incubated at 37° C. for 48 hrs.” for “assays.”
as §5

[10] = Table 3, read-out: EC50 (nM, IN Mutants) Y143R
[11] = Table 3, read-out: EC50 (nM, IN Mutants) N155H
[12] = Table 3, G140S-Q148H double mutant, read-out: EC50 (nM, IN Mutants) SH
[13] = Table 4, 3′-processing, read-out: IC50 (3^+-Processing)
[14] = Table 4, strand transfer, read-out: IC50 (Strand Transfer)
[15] = Table 8, read-out: EC50 (nM, IN mutants) Y143R
[16] = Table 8, read-out: EC50 (nM, IN mutants) N155H
[17] = Table 8, read-out: EC50 (nM, IN mutants) G140S/Q148H
[18] = Table 7, 3′-processing, read-out: IC50 (μM) 3′-P
[19] = Table 7, strand transfer, read-out: IC50 (μM) ST

O=C(NCc1ccc(F)cc1F)c1c(NCCO)c2cccnc2n(O)c1=O [XZ378, N-(2,4-difluorobenzyl)-1-hydroxy-4-((2-hydroxyethyl)amino)-2-oxo-1,2-dihydro-1,8-naphthyridine-3-carboxamide]
EC50 ([1]; Table 3): 5.2 ± 0.6 nM
Si (selectivity index) ([1]; Table 3): 4,519
EC50 [2, 10]: 4.6 ± 1.8 nM
EC50 [3, 11]: 24.6 ± 3.8 nM
EC50 [4, 12]: 43.1 ± 15.3 nM
IC50 [5, 13]: 550 ± 70 nM
IC50 [5, 14]: 10 ± 9 nM
EC50 ([6]; Table 6, read-out: EC50 (nM, IN Mutants) G118R): 27.3 ± 1.4 nM
CC50 ([7]; Table 3): 23500 ± 3000 nM
CC50 ([7]; Table 6): 23500 ± 3000 nM
EC50 ([8]; Table 6, read-out: EC50 (nM, IN Mutants) R263K): 26 nM

Nc1c(C(=O)NCc2ccc(F)cc2F)c(=O)n(O)c2ncc(CCS(=O)(=O)c3ccccc3)cc12 [XZ446, 4-Amino-N-(2,4-difluorobenzyl)-1-hydroxy-2-oxo-6-(2-(phenylsulfonyl)ethyl)-1,2-dihydro-1,8-naphthyridine-3-carboxamide]
EC50 ([1]; Table 8): 2 ± 0.1 nM
EC50 [2, 15]: 0.6 nM
EC50 [3, 16]: 2.1 nM
EC50 [4, 17]: 5.2 nM
EC50 [9]: 1.2 nM
IC50 ([5]; Table 10, strand transfer, read-out: IC50 (nM, ST)): 3.7 ± 1.3 nM
EC50 ([6]; Table 8, read-out: EC50 (nM, IN mutants) G118R): 11.4 nM
CC50 ([7]; Table 8): > 250000 nM
EC50 ([8]; Table 8, read-out: EC50 (nM, IN mutants) R263K): 5.3 nM

COC(=O)CNc1c(C(=O)NCc2ccc(F)cc2F)c(=O)n(O)c2ncc(CCCCCO)cc12 [XZ431, Methyl 2-((3-((2,4-difluorobenzyl)carbamoyl)-1-hydroxy-6-(5-hydroxypentyl)-2-oxo-1,2-dihydro-1,8-naphthyridin-4-yl)amino)acetate]
EC50 ([1]; Table 8): 3.3 nM
EC50 [2, 15]: 3.5 nM
EC50 [3, 16]: 11.1 nM
EC50 [4, 17]: 41.6 nM
IC50 [5, 18]: 2100 ± 500 nM
IC50 [5, 19]: 3.7 ± 0.7 nM
CC50 ([7]; Table 8): > 250000 nM

O=C(NCc1ccc(F)cc1F)c1c(N2CCOCC2)c2cccnc2n(O)c1=O [XZ373, N-(2,4-difluorobenzyl)-1-hydroxy-4-morpholino-2-oxo-1,2-dihydro-1,8-naphthyridine-3-carboxamide]
EC50 ([1]; Table 3): 1200 ± 260 nM
Si (selectivity index) ([1]; Table 3): 7
EC50 [2, 10]: 1800 ± 870 nM
EC50 [3, 11]: 3730 ± 920 nM
EC50 [4, 12]: 6920 ± 2 nM
IC50 [5, 13]: 77000 ± 12000 nM
IC50 [5, 14]: 79 ± 13 nM
CC50 ([7]; Table 3): 8400 ± 3200 nM

O=C(NCc1ccc(F)cc1F)c1c(O)c2cc(CCCCCO)cnc2n(O)c1=O [XZ421, N-(2,4-Difluorobenzyl)-1,4-dihydroxy-6-(5-hydroxypentyl)-2-oxo-1,2-dihydro-1,8-naphthyridine-3-carboxamide]
EC50 ([1]; Table 8): 23.7 nM
EC50 [2, 15]: 8.3 nM
EC50 [3, 16]: 31.6 nM
EC50 [4, 17]: 28.5 nM
IC50 [5, 18]: 14300 ± 1100 nM
IC50 [5, 19]: 12.4 ± 2.6 nM
CC50 ([7]; Table 8): > 250000 nM

Nc1c(C(=O)NCc2ccc(F)cc2F)c(=O)n(O)c2ncc(CCCOCCO)cc12 [XZ432, 4-Amino-N-(2,4-difluorobenzyl)-1-hydroxy-6-(3-(2-hydroxyethoxy)propyl)-2-oxo-1,2-dihydro-1,8-naphthyridine-3-carboxamide]
EC50 ([1]; Table 8): 1.6 nM
EC50 [2, 15]: 1.2 nM
EC50 [3, 16]: 4.2 nM
EC50 [4, 17]: 35.3 nM
IC50 [5, 18]: 1500 ± 400 nM
IC50 [5, 19]: 2.5 ± 0.4 nM
CC50 ([7]; Table 8): > 250000 nM

O=C(NCc1ccc(F)cc1F)c1c(NC2CCCCCC2)c2cccnc2n(O)c1=O [XZ376, 4-(cycloheptylamino)-N-(2,4-difluorobenzyl)-1-hydroxy-2-oxo-1,2-dihydro-1,8-naphthyridine-3-carboxamide]
EC50 ([1]; Table 3): 12.2 ± 2.9 nM
Si (selectivity index) ([1]; Table 3): 4,804
EC50 [2, 10]: 6.6 ± 1.7 nM
EC50 [3, 11]: 13.7 ± 3.8 nM
EC50 [4, 12]: 35 ± 11.7 nM
IC50 [5, 13]: 13100 ± 1100 nM
IC50 [5, 14]: 460 ± 180 nM
CC50 ([7]; Table 3): 68700 ± 8700 nM

Nc1c(C(=O)NCc2ccc(F)cc2F)c(=O)n(O)c2ncc(Br)cc12 [XZ418, 4-Amino-6-bromo-N-(2,4-difluorobenzyl)-1-hydroxy-2-oxo-1,2-dihydro-1,8-naphthyridine-3-carboxamide]
EC50 ([1]; Table 8): 0.99 nM
EC50 [2, 15]: 1.95 nM
EC50 [3, 16]: 18.8 nM
EC50 [4, 17]: 112 nM
IC50 [5, 18]: 7900 ± 800 nM
IC50 [5, 19]: 3.2 ± 0.5 nM
CC50 ([7]; Table 8): > 250000 nM

Nc1c(C(=O)NCc2ccc(F)cc2F)c(=O)n(O)c2ncc(CCc3ccccc3)cc12 [XZ430, 4-Amino-N-(2,4-difluorobenzyl)-1-hydroxy-2-oxo-6-phenethyl-1,2-dihydro-1,8-naphthyridine-3-carboxamide]
EC50 ([1]; Table 8): 5.6 nM
EC50 [2, 15]: 5.5 nM
EC50 [3, 16]: 21.1 nM
EC50 [4, 17]: 140 nM
IC50 [5, 18]: 48000 ± 4000 nM
IC50 [5, 19]: 14.5 ± 3.4 nM
CC50 ([7]; Table 8): 17600 nM
